Measured values taken from ChEMBL document CHEMBL3885861, “Open TG-GATES”.

Organism: Rattus norvegicus
Experiment: Open TG-GATES - Regimen: Daily Repeat
Assay type: toxicity, organism-based, Sprague-Dawley
Design: regimen Daily Repeat, gender Male, age 6 weeks
Settings: in vivo, po, 0 mg/kg, route gavage, dose level Control; for APTT / Bas / Eos / Fbg / Hb / Ht / Lym / MCH / MCHC / MCV / Mono / Neu / PT / Plat / RBC / Ret / WBC: tissue Blood; for KIDNEY_L / KIDNEY_R / KIDNEY_TOTAL: tissue Kidney; for LIVER: tissue Liver; for A/G / ALP / ALT / AST / BUN / CRE / Ca / Cl / DBIL / GLC / IP / K / LDH / Na / PL / RALB / TBIL / TC / TG / TP / gamma-GTP: tissue Plasma

Structure (SMILES): C=CCO [ALLYL ALCOHOL]
- TERMINAL_BW (72 h, time 3 day): 237.2 g
- APTT (72 h, time 3 day): 19.1 s
- Bas (72 h, time 3 day): 0%
- Eos (72 h, time 3 day): 1%
- Fbg (72 h, time 3 day): 221.6 mg/dL
- Hb (72 h, time 3 day): 13.4 g/dL
- Ht (72 h, time 3 day): 39.6%
- Lym (72 h, time 3 day): 79.4%
- MCH (72 h, time 3 day): 21 pg
- MCHC (72 h, time 3 day): 33.8%
- MCV (72 h, time 3 day): 62.1 fL
- Mono (72 h, time 3 day): 2.8%
- Neu (72 h, time 3 day): 16.6%
- PT (72 h, time 3 day): 11.7 s
- Plat (72 h, time 3 day): 133.7 x10_4/uL
- RBC (72 h, time 3 day): 638 x10_4/ul
- Ret (72 h, time 3 day): 5.7%
- WBC (72 h, time 3 day): 129.8 x10_2/uL
- KIDNEY_L (72 h, time 3 day): 1 g
- KIDNEY_R (72 h, time 3 day): 1 g
- KIDNEY_TOTAL (72 h, time 3 day): 2 g
- LIVER (72 h, time 3 day): 11.1 g
- A/G (72 h, time 3 day): 1.6
- ALP (72 h, time 3 day): 952.4 IU/L
- ALT (72 h, time 3 day): 38 IU/L
- AST (72 h, time 3 day): 65.8 IU/L
- BUN (72 h, time 3 day): 16.2 mg/dL
- CRE (72 h, time 3 day): 0.4 mg/dL
- Ca (72 h, time 3 day): 10.7 mg/dL
- Cl (72 h, time 3 day): 103.4 meq/L
- DBIL (72 h, time 3 day): 0.088 mg/dL
- GLC (72 h, time 3 day): 225.8 mg/dL
- IP (72 h, time 3 day): 6.1 mg/dL
- K (72 h, time 3 day): 4 meq/L
- LDH (72 h, time 3 day): 245.4 IU/L
- Na (72 h, time 3 day): 140.8 meq/L
- PL (72 h, time 3 day): 148.2 mg/dL
- RALB (72 h, time 3 day): 3.4 g/dL
- TBIL (72 h, time 3 day): 0.1 mg/dL
- TC (72 h, time 3 day): 77.4 mg/dL
- TG (72 h, time 3 day): 110.2 mg/dL
- TP (72 h, time 3 day): 5.4 g/dL
- gamma-GTP (72 h, time 3 day): 0.8 IU/L
- TERMINAL_BW ([…], time 7 day): 272.9 g
- TERMINAL_BW ([…], time 14 day): 319.8 g
- TERMINAL_BW ([…], time 28 day): 385.1 g
- APTT ([…], time 7 day): 20 s
- Bas ([…], time 7 day): 0%
- Eos ([…], time 7 day): 1%
- Fbg ([…], time 7 day): 227.6 mg/dL
- Hb ([…], time 7 day): 13.3 g/dL
- Ht ([…], time 7 day): 38.8%
- Lym ([…], time 7 day): 79.4%
- MCH ([…], time 7 day): 20.9 pg
- MCHC ([…], time 7 day): 34.4%
- MCV ([…], time 7 day): 60.6 fL
- Mono ([…], time 7 day): 3%
- Neu ([…], time 7 day): 16.2%
- PT ([…], time 7 day): 11.9 s
- Plat ([…], time 7 day): 136 x10_4/uL
- RBC ([…], time 7 day): 640.4 x10_4/ul
- Ret ([…], time 7 day): 5%
- WBC ([…], time 7 day): 119.1 x10_2/uL
- APTT ([…], time 14 day): 19.8 s
- Bas ([…], time 14 day): 0%
- Eos ([…], time 14 day): 1%
- Fbg ([…], time 14 day): 229 mg/dL
- Hb ([…], time 14 day): 14.2 g/dL
- Ht ([…], time 14 day): 41%
- Lym ([…], time 14 day): 78.2%
- MCH ([…], time 14 day): 20.2 pg
- MCHC ([…], time 14 day): 34.6%
- MCV ([…], time 14 day): 58.5 fL
- Mono ([…], time 14 day): 2.8%
- Neu ([…], time 14 day): 17.6%
- PT ([…], time 14 day): 12 s
- Plat ([…], time 14 day): 126.7 x10_4/uL
- RBC ([…], time 14 day): 701.8 x10_4/ul
- Ret ([…], time 14 day): 4.1%
- WBC ([…], time 14 day): 144 x10_2/uL
- APTT ([…], time 28 day): 20.9 s
- Bas ([…], time 28 day): 0%
- Eos ([…], time 28 day): 1%
- Fbg ([…], time 28 day): 220.6 mg/dL
- Hb ([…], time 28 day): 15.7 g/dL
- Ht ([…], time 28 day): 45.2%
- Lym ([…], time 28 day): 81.8%
- MCH ([…], time 28 day): 19.6 pg
- MCHC ([…], time 28 day): 34.7%
- MCV ([…], time 28 day): 56.5 fL
- Mono ([…], time 28 day): 2.4%
- Neu ([…], time 28 day): 14.4%
- PT ([…], time 28 day): 11.8 s
- Plat ([…], time 28 day): 111.6 x10_4/uL
- RBC ([…], time 28 day): 801.6 x10_4/ul
- Ret ([…], time 28 day): 2.6%
- WBC ([…], time 28 day): 94.8 x10_2/uL
- KIDNEY_L ([…], time 7 day): 1.1 g
- KIDNEY_R ([…], time 7 day): 1.1 g
- KIDNEY_TOTAL ([…], time 7 day): 2.2 g
- KIDNEY_L ([…], time 14 day): 1.2 g
- KIDNEY_R ([…], time 14 day): 1.2 g
- KIDNEY_TOTAL ([…], time 14 day): 2.4 g
- KIDNEY_L ([…], time 28 day): 1.3 g
- KIDNEY_R ([…], time 28 day): 1.3 g
- KIDNEY_TOTAL ([…], time 28 day): 2.6 g
- LIVER ([…], time 7 day): 13.1 g
- LIVER ([…], time 14 day): 14.1 g
- LIVER ([…], time 28 day): 16 g
- A/G ([…], time 7 day): 1.5
- ALP ([…], time 7 day): 889.2 IU/L
- ALT ([…], time 7 day): 34 IU/L
- AST ([…], time 7 day): 60.8 IU/L
- BUN ([…], time 7 day): 16.6 mg/dL
- CRE ([…], time 7 day): 0.4 mg/dL
- Ca ([…], time 7 day): 10.9 mg/dL
- Cl ([…], time 7 day): 102 meq/L
- DBIL ([…], time 7 day): 0.098 mg/dL
- GLC ([…], time 7 day): 219.6 mg/dL
- IP ([…], time 7 day): 6.9 mg/dL
- K ([…], time 7 day): 3.9 meq/L
- LDH ([…], time 7 day): 180.4 IU/L
- Na ([…], time 7 day): 140.6 meq/L
- PL ([…], time 7 day): 146 mg/dL
- RALB ([…], time 7 day): 3.4 g/dL
- TBIL ([…], time 7 day): 0.2 mg/dL
- TC ([…], time 7 day): 74 mg/dL
- TG ([…], time 7 day): 124.4 mg/dL
- TP ([…], time 7 day): 5.6 g/dL
- gamma-GTP ([…], time 7 day): 0.8 IU/L
- A/G ([…], time 14 day): 1.4
- ALP ([…], time 14 day): 766.2 IU/L
- ALT ([…], time 14 day): 34.2 IU/L
- AST ([…], time 14 day): 61.2 IU/L
- BUN ([…], time 14 day): 14.8 mg/dL
- CRE ([…], time 14 day): 0.4 mg/dL
- Ca ([…], time 14 day): 10.5 mg/dL
- Cl ([…], time 14 day): 101.4 meq/L
- DBIL ([…], time 14 day): 0.072 mg/dL
- GLC ([…], time 14 day): 234 mg/dL
- IP ([…], time 14 day): 6.9 mg/dL
- K ([…], time 14 day): 3.7 meq/L
- LDH ([…], time 14 day): 223.2 IU/L
- Na ([…], time 14 day): 140.2 meq/L
- PL ([…], time 14 day): 141.2 mg/dL
- RALB ([…], time 14 day): 3.4 g/dL
- TBIL ([…], time 14 day): 0.1 mg/dL
- TC ([…], time 14 day): 68.8 mg/dL
- TG ([…], time 14 day): 101 mg/dL
- TP ([…], time 14 day): 5.8 g/dL
- gamma-GTP ([…], time 14 day): 1.2 IU/L
- A/G ([…], time 28 day): 1.3
- ALP ([…], time 28 day): 588.4 IU/L
- ALT ([…], time 28 day): 33.6 IU/L
- AST ([…], time 28 day): 59.2 IU/L
- BUN ([…], time 28 day): 15.4 mg/dL
- CRE ([…], time 28 day): 0.5 mg/dL
- Ca ([…], time 28 day): 10.5 mg/dL
- Cl ([…], time 28 day): 101.8 meq/L
- DBIL ([…], time 28 day): 0.068 mg/dL
- GLC ([…], time 28 day): 222.2 mg/dL
- IP ([…], time 28 day): 6.1 mg/dL
- K ([…], time 28 day): 3.4 meq/L
- LDH ([…], time 28 day): 166.6 IU/L
- Na ([…], time 28 day): 140.6 meq/L
- PL ([…], time 28 day): 141.8 mg/dL
- RALB ([…], time 28 day): 3.5 g/dL
- TBIL ([…], time 28 day): 0.1 mg/dL
- TC ([…], time 28 day): 71.2 mg/dL
- TG ([…], time 28 day): 100.2 mg/dL
- TP ([…], time 28 day): 6.2 g/dL
- gamma-GTP ([…], time 28 day): 1 IU/L
